Test systems include DLD-1 colon; RXF 393 renal; OVCAR-5 ovarian; SW-620 colon; A549 NSCLC; ACHN renal; KM20L2 colon; SF-295 CNS; IGROV1 ovarian; XF 498 CNS; HT29 colon.
Common to all, as to assay: NCI tumour cell line growth inhibition, 48 h

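Compound exposure: 48 hours, 5 concentrations, 96-well plates. GI50: concentration for 50% inhibition of growth. TGI marks complete inhibition of growth.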

For the compound `O=C(OCc1ccccc1)C(Cc1ccccc1)N(Cc1ccccc1)Cc1ccccc1` (stereo not given), the TGI in the assay on DLD-1 colon, in the assay on RXF 393 renal, in the assay on OVCAR-5 ovarian, in the assay with SW-620 colon, in the assay on A549 NSCLC and with ACHN renal was above 100 µM each time. Moreover, the TGI in the assay with KM20L2 colon, in the assay with SF-295 CNS, with IGROV1 ovarian, in the assay with XF 498 CNS and with HT29 colon was above 100 µM in each case.

As for `O=C1c2cccc(NCCNCCO)c2C(=O)c2cccc(NCCNCCO)c21`, the TGI amounted to 12.6 µM with DLD-1 colon; 3.89 µM with RXF 393 renal; 5.67 µM in the assay on OVCAR-5 ovarian; 11 µM in the assay on SW-620 colon; 7.78 µM in the assay with A549 NSCLC; 8.16 µM in the assay with ACHN renal. Also, the TGI in the assay on KM20L2 colon turned out to be 5.3 µM; with SF-295 CNS, 5.77 µM; in the assay on IGROV1 ovarian it was 6.39 µM; in the assay on XF 498 CNS it was 1.88 µM; in the assay with HT29 colon it was 3.54 µM.

On to `COc1c(O)c(O)cc2c1-c1ccc(OC)c(=O)cc1C(NC(C)=O)CC2` (stereo not given), for which the TGI in the assay with DLD-1 colon is above 100 µM; in the assay on RXF 393 renal, above 41.2 µM; in the assay with OVCAR-5 ovarian, 80.6 µM; with SW-620 colon, 63.3 µM; with A549 NSCLC, above 100 µM; with ACHN renal, above 96.5 µM. For the same compound, the TGI with KM20L2 colon is 17.5 µM; with SF-295 CNS it was 20.5 µM; in the assay with IGROV1 ovarian, above 100 µM; in the assay with XF 498 CNS, 54.2 µM; in the assay on HT29 colon, 16 µM.

`Cc1c2ccncc2c(C)c2c1[nH]c1ccccc12`: the TGI in the assay with DLD-1 colon stood at 2.33 µM; in the assay on RXF 393 renal it was 0.595 µM; with OVCAR-5 ovarian it was 4.23 µM; in the assay with SW-620 colon it was 2.07 µM; in the assay on A549 NSCLC, 2.96 µM; in the assay on ACHN renal, 4.32 µM. Besides, the TGI in the assay on KM20L2 colon was determined as 5.89 µM; with SF-295 CNS it was 2 µM; in the assay on IGROV1 ovarian it was 3.76 µM; in the assay on XF 498 CNS, 3.29 µM; in the assay with HT29 colon, 3.88 µM. For the same compound, the GI50 in the assay on ACHN renal is 0.473 µM.

These data come from PubChem BioAssay (NCI).
